Reference: patent US6410792B1, “Amide derivatives and methods for using the same as selective neuropeptide Y receptor antagonists” (Bayer Corporation, priority 1997, dated 2002)
Read-outs that look alike come from different tables or passages of the source.

Legend:
[1] = target: T1, Y2 receptor (Homo sapiens, UniProt P49146); assay: Y2 receptor binding assay ([125I]PYY, membrane protein); settings: [125I]PYY binding, membrane protein; read-out: hNPY2 IC50
T1 sequence (P49146 1-381): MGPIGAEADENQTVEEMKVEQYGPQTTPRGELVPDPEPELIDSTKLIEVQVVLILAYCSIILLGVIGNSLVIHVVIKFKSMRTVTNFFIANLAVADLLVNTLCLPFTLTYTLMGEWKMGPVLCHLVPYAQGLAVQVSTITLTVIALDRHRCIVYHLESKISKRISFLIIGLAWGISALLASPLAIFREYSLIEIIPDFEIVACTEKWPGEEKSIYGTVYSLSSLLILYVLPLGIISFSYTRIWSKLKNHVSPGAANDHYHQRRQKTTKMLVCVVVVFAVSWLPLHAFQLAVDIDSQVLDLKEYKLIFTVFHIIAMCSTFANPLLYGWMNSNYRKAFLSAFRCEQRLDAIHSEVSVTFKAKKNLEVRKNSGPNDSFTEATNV
Description: B. Human Y2 and Y4/PP1 Receptor Binding Assays
Binding assays were performed on GF/C Millipore 96-well plates pretreated with 0.02% polyethylenimine. The binding buffer for rat Y2 binding is Krebs-Ringer bicarbonate (pH 7.4) containing 0.01% BSA and 0.005% bacitracin. Samples consist of membrane protein, 25 pM [1251]PYY and drug dilution. Nonspecific binding is defined by 1 μM NPY. The binding buffer for human Y4/PP1 binding consists of 137 mM NaCl, 5.4 mM KCl, 0.44 mM KH2PO4, 1.26 mM CaCl2, 0.81 mM MgSO4, 20 mM HEPES, 1 mM dithiothreitol, 0.1% bacitracin, 100 mg/l streptomycin sulfate, 1 mg/l aprotinin, 10 mg/ml soybean trypsin inhibitor and 0.3% BSA, pH 7.4. Samples consist of membrane protein, 50 pM human [1251]human PP (hPP: NEN DuPont, Boston, Mass.) and drug dilution. 1 μM hPP is used to define nonspecific binding.
After a 2 hour incubation at room temperature with constant mixing, the samples are aspirated on a vacuum manifold, and rinsed with ice-cold binding buffer. The amount of radioactivity in each well is quantitated with either gamma counting or liquid scintillation.

[2] = target: T2, Human NPY5 receptor (Homo sapiens, UniProt Q15761); assay: Human NPY5 receptor binding assay ([125I]PYY, membrane protein)
T2 sequence (Q15761 1-445): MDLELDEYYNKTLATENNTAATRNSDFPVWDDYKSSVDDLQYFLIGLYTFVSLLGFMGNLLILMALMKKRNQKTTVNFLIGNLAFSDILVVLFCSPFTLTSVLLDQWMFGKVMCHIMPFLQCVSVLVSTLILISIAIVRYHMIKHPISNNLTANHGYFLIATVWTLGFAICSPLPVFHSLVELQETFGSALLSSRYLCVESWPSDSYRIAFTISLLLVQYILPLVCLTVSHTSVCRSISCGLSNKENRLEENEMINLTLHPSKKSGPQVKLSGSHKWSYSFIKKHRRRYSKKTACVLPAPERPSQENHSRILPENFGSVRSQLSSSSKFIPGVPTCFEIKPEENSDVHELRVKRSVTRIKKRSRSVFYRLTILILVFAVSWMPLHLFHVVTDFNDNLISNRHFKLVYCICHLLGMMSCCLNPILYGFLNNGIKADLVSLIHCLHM
Description: C. Human and Rat NPY5 Receptor Binding Assays
Binding assays are performed on GF/C Millipore 96well plates pretreated with 0.02% polyethylenimine. The binding buffer is 25 mM Tris, 120 mM NaCl, 5 mM KCl, 1.2 mM KH2PO4, 2.5 mM CaCl2, 1.2 mM MgSO4, 0.1% BSA and 0.5 mg/ml bacitracin, pH 7.4. Samples consist of membrane protein, 75-100 pM [125I]PYY (porcine, NEN-DuPont) and drug dilution. Nonspecific binding is defined by 1 μM PYY. After a 2 hour incubation at room temperature with constant mixing, the samples are aspirated on a vacuum manifold, and rinsed with ice-cold binding buffer. The amount of radioactivity in each well is quantitated with either gamma counting or liquid scintillation.

[3] = [125I]PYY binding, read-out: hNPY5 IC50

Molecule `NC(=O)C1(Nc2ccccc2)CCN(CC(=O)Nc2ccc(C(=O)c3ccccc3)cc2)CC1` [Compound 47, 1-[(4-Benzoyl-phenylcarbamoyl)-methyl]-4-phenylamino-piperidine-4-carboxylic acid amide] has an IC50 [1] of over 5 µM and an IC50 [2, 3] of 1.2 µM.
With `O=C(CN1CCC(N2CCCC2)CC1)Nc1ccc(C(=O)c2ccccc2)cc1` [Compound 45, N-(4-Benzoyl-phenyl)-2-(4-pyrrolidin-1-yl-piperidin-1-yl)-acetamide] the IC50 [1] was over 5 µM and the IC50 [2, 3] was 8.5 µM.
`NC(=O)C1CCCN1CC(=O)Nc1ccc(C(=O)c2ccccc2)cc1` (stereo not shown) [Compound 123, 1-[(4-Benzoyl-phenylcarbamoyl)-methyl]-pyrrolidine-2-carboxylic acid amide] showed an IC50 [1] of over 5 µM and an IC50 [2, 3] of 0.91 µM.
Molecule `CN(C)CC(=O)Nc1ccc(C2CCCCC2)cc1` [Compound 2, N-(4-Cyclohexyl-phenyl)-2-dimethylamino-acetamide] has an IC50 [1] of over 5 µM and an IC50 [2, 3] of 0.78 µM.
In the case of `NC(=O)C1(Nc2ccccc2)CCN(CC(=O)Nc2ccc(C3CCCCC3)cc2)CC1` [Compound 31, 1-[(4-Cyclohexyl-phenylcarbamoyl)-methyl]-4-phenylamino-piperidine-4-carboxylic acid amide], the IC50 [1] is reported as over 5 µM and the IC50 [2, 3] is reported as 1.2 µM.
`CCNC1(C(N)=O)CCN(CC(=O)Nc2ccc(C(=O)c3ccccc3)cc2)CC1` [Compound 48, 1-[(4-Benzoyl-phenylcarbamoyl)-methyl]-4-ethylamino-piperidine-4-carboxylic acid amide] was tested, and the IC50 [1] was over 5 µM and the IC50 [2, 3] was 0.02 µM.
For `O=C(CN1CCC[C@H]1C(=O)OCc1ccccc1)Nc1ccc(C2CCCCC2)cc1` [Compound 95, (2S)-1-[(4-Cyclohexyl-phenylcarbamoyl)-methyl]-pyrrolidin-2-carboxylic acid benzyl ester], the IC50 [1] was over 5 µM and the IC50 [2, 3] was 1.6 µM.
With `CNC1(C(N)=O)CCN(CC(=O)Nc2ccc(C(=O)c3ccccc3)cc2)CC1` [Compound 46, 1-[(4-Benzoyl-phenylcarbamoyl)-methyl]-4-methylamino-piperidine-4-carboxylic acid amide] the IC50 [1] was over 5 µM and the IC50 [2, 3] was 0.005 µM.
In the case of “1-[(4 Benzoyl-phenylcarbamoyl)-methyl]-4-dimethylamino-piperidine-4-carboxylic acid amide [Compound 53]”, the IC50 [1] is reported as over 5 µM and the IC50 [2, 3] is reported as 0.44 µM.
In the case of `O=C(CN1CCC(O)(c2ccccc2)CC1)Nc1ccc(C(=O)c2ccccc2)cc1` [Compound 41, N-(4-Benzoyl-phenyl)-2-(4-hydroxy-4-phenyl-piperidin-1-yl)-acetamide], the IC50 [1] is reported as over 5 µM and the IC50 ([2]; hNPY5 IC50, [125I]PYY binding) is reported as 0.06 µM.
With `C=C(C)[C@@H]1CN(CC(=O)Nc2ccc(C3CCCCC3)cc2)[C@H](C(=O)O)[C@@H]1CC(=O)O` [Compound 115, (2S,3R,4R)-3-Carboxymethyl-1-[(4-cyclohexyl-phenylcarbamoyl)-methyl]-4-isopropenyl-pyrrolidine-2-carboxylic acid] the IC50 [1] was over 5 µM and the IC50 ([2]; hNPY5 IC50, [125I]PYY binding) was over 10 µM.
For `O=C(CN1C[C@H](O)C[C@H]1C(=O)O)Nc1ccc(C(=O)c2ccccc2)cc1` [Compound 109, (2S,4R)-1-[(4-Benzoyl-phenylcarbamoyl)-methyl]-4-hydroxy-pyrrolidine-2-carboxylic acid], the IC50 [1] was over 5 µM and the IC50 [2, 3] was over 10 µM.
For `CCN(CC(=O)Nc1ccc(C(=O)c2ccccc2)cc1)Cc1ccncc1` [Compound 21, N-(4-Benzoyl-phenyl)-2-(ethyl-pyridin-4-ylmethyl-amino)-acetamide], the IC50 [1] was over 5 µM and the IC50 [2, 3] was 0.63 µM.
For `O=C(CN1CCC(O)(CCCc2ccccc2)CC1)Nc1ccc(C2CCCCC2)cc1` [Compound 61, N-(4-Cyclohexyl-phenyl)-2-[4-hydroxy-4-(3-phenyl-propyl)-piperidin-1-yl]-acetamide], the IC50 [1] was over 5 µM and the IC50 [2, 3] was 9.5 µM.
With `CC1(C)C[C@@H]2C[C@@](C)(CN2CC(=O)Nc2ccc(C3CCCCC3)cc2)C1` [Compound 94, N-(4-Cyclohexyl-phenyl)-2-((1S,5R)-1,3,3-trimethyl-6-aza-bicyclo[3.2.1]oct-6-yl)-acetamide] the IC50 [1] was over 5 µM and the IC50 [2, 3] was 3.2 µM.
`O=C(CN1CCN(c2ccccc2Cl)CC1)Nc1ccc(C2CCCCC2)cc1` [Compound 3, 2-[4-(2-Chloro-phenyl)-piperazin-1-yl]-N-(4-cyclohexyl-phenyl)-acetamide] showed an IC50 [1] of over 5 µM and an IC50 [2, 3] of 0.19 µM.
For “N-(4-Benzoyl-phenyl)-2-[4-(4-bromo-phenyl)-4-hydroxy-piperidin-1-yl]-acetamide [Compound 89]”, the IC50 [1] was over 5 µM and the IC50 [2, 3] was 0.52 µM.
`O=C(CN1CCC[C@@H]1C(O)(c1ccccc1)c1ccccc1)Nc1ccc(C2CCCCC2)cc1` [Compound 83, N-(4-Cyclohexyl-phenyl)-2-[2R-(hydroxy-diphenyl-methyl)-pyrrolidin-1-yl]-acetamide] gave an IC50 [1] of over 5 µM and an IC50 [2, 3] of 0.92 µM.
`O=C(CN1CCC(O)(Cc2ccccc2)CC1)Nc1ccc(C2CCCCC2)cc1` [Compound 1, 2-(4-Benzyl-4-hydroxypiperidin-1-yl)-N-(4-cyclohexylphenyl)acetamide] gave an IC50 [1] of over 5 µM and an IC50 [2, 3] of 0.15 µM.
`CC(=O)C1(c2ccccc2)CCN(CC(=O)Nc2ccc(C3CCCCC3)cc2)CC1` [Compound 87, 2-(4-Acetyl-4-phenyl-piperidin-1-yl)-N-(4-cyclohexyl-phenyl)-acetamide] was tested, and the IC50 [1] was over 5 µM and the IC50 [2, 3] was 0.004 µM.
For “1-[(4-Cyclohexyl-phenylcarbamoyl)-methyl]-piperidine-4-carboxylic acid [Compound 25]”, the IC50 [1] was over 5 µM and the IC50 [2, 3] was 1.9 µM.
`CC1(C)CCN(CC(=O)Nc2ccc(C(=O)c3ccccc3)cc2)CC1` [Compound 51, N-(4-Benzoyl-phenyl)-2-(4,4-dimethyl-piperidin-1-yl)-acetamide] was tested, and the IC50 [1] was over 5 µM and the IC50 [2, 3] was 3.3 µM.
Work on `O=C(CNCC1CCNCC1)Nc1ccc(C2CCCCC2)cc1` [Compound 28, N-(4-Cyclohexyl-phenyl)-2-[(piperidin-4-ylmethyl)-amino]-acetamide] yielded an IC50 [1] of over 5 µM and an IC50 [2, 3] of 8.9 µM.
`O=C(CN1CCC(C(=O)c2ccc(F)cc2)CC1)Nc1ccc(C(=O)c2ccccc2)cc1` [Compound 121, N-(4-Benzoyl-phenyl)-2-[4-(4-fluoro-benzoyl)-piperidin-1-yl]-acetamide] showed an IC50 [1] of over 5 µM and an IC50 [2, 3] of 0.095 µM.
For `O=C(CN1CCN(c2ccc(Cl)cc2)CC1)Nc1ccc(C(=O)c2ccccc2)cc1` [Compound 10, N-(4-Benzoyl-phenyl)-2-[4-(4-chloro-phenyl)-piperazin-1-yl]-acetamide], the IC50 [1] was over 5 µM and the IC50 [2, 3] was 2.9 µM.
`COC[C@@H]1CCCN1CC(=O)Nc1ccc(C2CCCCC2)cc1` [Compound 93, N-(4-Cyclohexyl-phenyl)-2-(2S-methoxymethyl-pyrrolidin-1-yl)-acetamide] showed an IC50 [1] of over 5 µM and an IC50 [2, 3] of 0.48 µM.
In the case of `NC(=O)C1(NC2CCCCC2)CCN(CC(=O)Nc2ccc(C3CCCCC3)cc2)CC1` [Compound 35, 4-Cyclohexylamino-1-[(4-cyclohexyl-phenylcarbamoyl)-methyl]-piperidin-4-carboxylic acid amide], the IC50 [1] is reported as over 5 µM and the IC50 [2, 3] is reported as 0.63 µM.
With `CC1(C)C[C@@H]2C[C@@](C)(CN2CC(=O)Nc2ccc(C(=O)c3ccccc3)cc2)C1` [Compound 105, N-(4-Benzoyl-phenyl)-2-((1S,5R)-1,3,3-trimethyl-6-aza-bicyclo[3.2.1]oct-6-yl)-acetamide] the IC50 [1] was over 5 µM and the IC50 [2, 3] was 5.1 µM.
`O=C(CN1CCC(C(=O)N2CCCCC2)(c2ccccc2)CC1)Nc1ccc(C2CCCCC2)cc1` [Compound 72, N-(4-Cyclohexyl-phenyl)-2-[4-phenyl-4-(piperidine-1-carbonyl)-piperidin-1-yl]-acetamide] was tested, and the IC50 [1] was over 5 µM and the IC50 [2, 3] was 1 µM.
